Laboratory results from ChEMBL document CHEMBL1671651, “Azithromycin in Pseudomonas aeruginosa biofilms: bactericidal activity and selection of nfxB mutants” (2009).
≈ marks a conversion by molar mass, not a printed value.

Key:
Assay type in all cases: functional
Pseudomonas aeruginosa [1] = experiment: Antimicrobial activity against mutS::lox-deficient Pseudomonas aeruginosa PAOMSA biofilm harboring nfxB G461A mutant gene selected at 4 ug/ml of azithromycin after 5 passages by Etest method
Pseudomonas aeruginosa [2] = experiment: Antimicrobial activity against Pseudomonas aeruginosa PAO1 A biofilm harboring duplication mutation at nucleotide 333 in nfxB gene selected at 0.5 ug/ml of azithromycin by Etest method
Pseudomonas aeruginosa [3] = experiment: Antimicrobial activity against mucA::lox-deficient Pseudomonas aeruginosa PAOMAB biofilm harboring nfxB G125T mutant gene selected at 0.5 ug/ml of azithromycin after 1 passages by Etest method
Pseudomonas aeruginosa [4] = experiment: Antimicrobial activity against mucA::lox, mutS::lox-deficient Pseudomonas aeruginosa PAOMSAA biofilm harboring nfxB C89T mutant gene selected at 0.5 ug/ml of azithromycin after 3 passages by Etest method
Pseudomonas aeruginosa [5] = experiment: Antimicrobial activity against mucA::lox, mutS::lox-deficient Pseudomonas aeruginosa PAOMSAA biofilm harboring nfxB C89T mutant gene selected at 4 ug/ml of azithromycin after 6 passages by Etest method
Pseudomonas aeruginosa [6] = experiment: Antimicrobial activity against mutS::lox,mexD::lox-deficient Pseudomonas aeruginosa PAOMSMxD biofilm by Etest method
Pseudomonas aeruginosa [7] = experiment: Antimicrobial activity against Pseudomonas aeruginosa PAO1 A biofilm harboring nfxB T248C mutant gene selected at 4 ug/ml of azithromycin after 4 passages by Etest method
Pseudomonas aeruginosa [8] = experiment: Antimicrobial activity against mutS::lox-deficient Pseudomonas aeruginosa PAOMSA biofilm harboring nfxB G539A mutant gene selected at 4 ug/ml of azithromycin after 6 passages by Etest method
Pseudomonas aeruginosa [9] = experiment: Antimicrobial activity against mucA::lox, mutS::lox-deficient Pseudomonas aeruginosa PAOMSAB biofilm harboring nfxB C89T mutant gene selected at 4 ug/ml of azithromycin after 6 passages by Etest method
Pseudomonas aeruginosa [10] = experiment: Antimicrobial activity against mucA::lox, mutS::lox-deficient Pseudomonas aeruginosa PAOMSAB biofilm harboring nfxB C25T mutant gene selected at 1 ug/ml of azithromycin after 2 passages by Etest method
Pseudomonas aeruginosa [11] = experiment: Antimicrobial activity against mucA::lox, mutS::lox-deficient Pseudomonas aeruginosa PAOMSAA biofilm harboring nfxB T77C mutant gene selected at 4 ug/ml of azithromycin after 3 passages by Etest method
Pseudomonas aeruginosa [12] = experiment: Antimicrobial activity against mutS::lox-deficient Pseudomonas aeruginosa PAOMSB biofilm harboring nfxB T380C mutant gene selected at 0.5 ug/ml of azithromycin after 2 passages by Etest method
Pseudomonas aeruginosa [13] = experiment: Antimicrobial activity against mutS::lox-deficient Pseudomonas aeruginosa PAOMSA biofilm harboring nfxB C116T mutant gene selected at 1 ug/ml of azithromycin after 1 passages by Etest method
Pseudomonas aeruginosa [14] = experiment: Antimicrobial activity against mutS::lox-deficient Pseudomonas aeruginosa PAOMSB biofilm harboring nfxB T77C mutant gene selected at 4 ug/ml of azithromycin after 6 passages by Etest method
Pseudomonas aeruginosa [15] = experiment: Antimicrobial activity against Pseudomonas aeruginosa PAO1 biofilm by Etest method
Pseudomonas aeruginosa [16] = experiment: Antimicrobial activity against mutS::lox-deficient Pseudomonas aeruginosa PAOMS biofilm by Etest method
Pseudomonas aeruginosa [17] = experiment: Antimicrobial activity against mutS::lox-deficient Pseudomonas aeruginosa PAOMSA biofilm harboring nfxB T533C mutant gene selected at 4 ug/ml of azithromycin after 2 passages by Etest method
Pseudomonas aeruginosa [18] = experiment: Antimicrobial activity against nfxB gene-deficient Pseudomonas aeruginosa PAONB biofilm by Etest method
Pseudomonas aeruginosa [19] = experiment: Antimicrobial activity against mutS::lox-deficient Pseudomonas aeruginosa PAOMSB biofilm harboring nfxB C116T mutant gene selected at 4 ug/ml of azithromycin after 5 passages by Etest method
Pseudomonas aeruginosa [20] = experiment: Antimicrobial activity against mucA::lox-deficient Pseudomonas aeruginosa PAOMA biofilm by Etest method
Pseudomonas aeruginosa [21] = experiment: Antimicrobial activity against mucA::lox, mutS::lox-deficient Pseudomonas aeruginosa PAOMSA biofilm by Etest method
Pseudomonas aeruginosa [22] = experiment: Antimicrobial activity against mucA::lox-deficient Pseudomonas aeruginosa PAOMAA biofilm harboring nfxB C25T mutant gene selected at 1 ug/ml of azithromycin after 2 passages by Etest method
Pseudomonas aeruginosa [23] = experiment: Antimicrobial activity against mucA::lox, mutS::lox-deficient Pseudomonas aeruginosa PAOMSAB biofilm harboring nfxB T86C mutant gene selected at 4 ug/ml of azithromycin after 2 passages by Etest method
Pseudomonas aeruginosa [24] = experiment: Antimicrobial activity against mutS::lox-deficient Pseudomonas aeruginosa PAOMSA biofilm harboring nfxB T86C mutant gene selected at 4 ug/ml of azithromycin after 3 passages by Etest method
Pseudomonas aeruginosa [25] = experiment: Antimicrobial activity against mutS::lox-deficient Pseudomonas aeruginosa PAOMSB biofilm harboring deletion od C534 in nfxB mutant gene selected at 4 ug/ml of azithromycin after 2 passages by Etest method
Pseudomonas aeruginosa [26] = experiment: Antimicrobial activity against mucA::lox, mutS::lox-deficient Pseudomonas aeruginosa PAOMSAA biofilm harboring nfxB T86C mutant gene selected at 4 ug/ml of azithromycin after 2 passages by Etest method
Pseudomonas aeruginosa [27] = experiment: Antimicrobial activity against mutS::lox,nfxB gene-deficient Pseudomonas aeruginosa PAOMSNB biofilm by Etest method
Pseudomonas aeruginosa [28] = experiment: Antimicrobial activity against mutS::lox-deficient Pseudomonas aeruginosa PAOMSB biofilm harboring nfxB T41C mutant gene selected at 4 ug/ml of azithromycin after 3 passages by Etest method
Pseudomonas aeruginosa [29] = experiment: Antimicrobial activity against mutS::lox-deficient Pseudomonas aeruginosa PAOMSB biofilm harboring nfxB T562C mutant gene selected at 4 ug/ml of azithromycin after 4 passages by Etest method
Pseudomonas aeruginosa [30] = experiment: Antimicrobial activity against mutS::lox-deficient Pseudomonas aeruginosa PAOMSA biofilm harboring nfxB T86C mutant gene selected at 4 ug/ml of azithromycin after 4 passages by Etest method
Pseudomonas aeruginosa [31] = experiment: Antimicrobial activity against Pseudomonas aeruginosa PAO1 A biofilm harboring deletion mutation at nucleotide 231-244 in nfxB gene selected at 1 ug/ml of azithromycin after 4 passages by Etest method
Pseudomonas aeruginosa [32] = experiment: Antimicrobial activity against mexD::lox-deficient Pseudomonas aeruginosa PAOMxD biofilm by Etest method
Pseudomonas aeruginosa [33] = experiment: Antimicrobial activity against mucA::lox, mutS::lox-deficient Pseudomonas aeruginosa PAOMSAB biofilm harboring nfxB T544C mutant gene selected at 4 ug/ml of azithromycin after 1 passages by Etest method

SMILES | MIC (Pseudomonas aeruginosa [1]) | MIC (Pseudomonas aeruginosa [2]) | MIC (Pseudomonas aeruginosa [3]) | MIC (Pseudomonas aeruginosa [4]) | MIC (Pseudomonas aeruginosa [5]) | MIC (Pseudomonas aeruginosa [6]) | MIC (Pseudomonas aeruginosa [7]) | MIC (Pseudomonas aeruginosa [8]) | MIC (Pseudomonas aeruginosa [10]) | MIC (Pseudomonas aeruginosa [11]) | MIC (Pseudomonas aeruginosa [12]) | MIC (Pseudomonas aeruginosa [13]) | MIC (Pseudomonas aeruginosa [18]) | MIC (Pseudomonas aeruginosa [19]) | MIC (Pseudomonas aeruginosa [23]) | MIC (Pseudomonas aeruginosa [26]) | MIC (Pseudomonas aeruginosa [27]) | MIC (Pseudomonas aeruginosa [29]) | MIC (Pseudomonas aeruginosa [30]) | MIC (Pseudomonas aeruginosa [31]) | also measured
CO/N=C(\C(=O)N[C@@H]1C(=O)N2C(C(=O)[O-])=C(C[N+]3(C)CCCC3)CS[C@H]12)c1csc(N)n1 [CEFEPIME] | 8 µg/mL | 12 µg/mL | 12 µg/mL | 12 µg/mL | 16 µg/mL | 1.5 µg/mL (≈ 3.12 µM) | 12 µg/mL | 12 µg/mL | 8 µg/mL | 12 µg/mL | 12 µg/mL | 12 µg/mL | 8 µg/mL (≈ 16.6 µM) | 12 µg/mL | 12 µg/mL | 16 µg/mL | 8 µg/mL (≈ 16.6 µM) | 6 µg/mL | 6 µg/mL | 12 µg/mL | MIC (Pseudomonas aeruginosa [9]): 16 µg/mL; MIC (Pseudomonas aeruginosa [14]): 12 µg/mL; MIC (Pseudomonas aeruginosa [15]): 1.5 µg/mL (≈ 3.12 µM); MIC (Pseudomonas aeruginosa [16]): 1.5 µg/mL (≈ 3.12 µM); MIC (Pseudomonas aeruginosa [17]): 8 µg/mL; MIC (Pseudomonas aeruginosa [20]): 1.5 µg/mL (≈ 3.12 µM); MIC (Pseudomonas aeruginosa [21]): 1.5 µg/mL (≈ 3.12 µM); MIC (Pseudomonas aeruginosa [22]): 12 µg/mL; MIC (Pseudomonas aeruginosa [24]): 16 µg/mL; MIC (Pseudomonas aeruginosa [25]): 12 µg/mL; MIC (Pseudomonas aeruginosa [28]): 8 µg/mL; MIC (Pseudomonas aeruginosa [32]): 1.5 µg/mL (≈ 3.12 µM); MIC (Pseudomonas aeruginosa [33]): 12 µg/mL
C[C@@H](O)[C@H]1C(=O)N2C(C(=O)O)=C(SCCNC=N)C[C@H]12 [IMIPENEM ANHYDROUS] | 1.5 µg/mL | 0.25 µg/mL | 0.25 µg/mL | 0.38 µg/mL | 0.38 µg/mL | 1.5 µg/mL (≈ 5.01 µM) | 0.38 µg/mL | 0.25 µg/mL | 0.25 µg/mL | 1 µg/mL | 0.25 µg/mL | 1 µg/mL | 0.19 µg/mL (≈ 0.635 µM) | 0.38 µg/mL | 0.25 µg/mL | 0.38 µg/mL | 0.5 µg/mL (≈ 1.67 µM) | 1 µg/mL | 0.19 µg/mL | 0.38 µg/mL | MIC (Pseudomonas aeruginosa [9]): 0.38 µg/mL; MIC (Pseudomonas aeruginosa [14]): 0.5 µg/mL; MIC (Pseudomonas aeruginosa [15]): 1.5 µg/mL (≈ 5.01 µM); MIC (Pseudomonas aeruginosa [16]): 1.5 µg/mL (≈ 5.01 µM); MIC (Pseudomonas aeruginosa [17]): 0.38 µg/mL; MIC (Pseudomonas aeruginosa [20]): 1 µg/mL (≈ 3.34 µM); MIC (Pseudomonas aeruginosa [21]): 1.5 µg/mL (≈ 5.01 µM); MIC (Pseudomonas aeruginosa [22]): 0.38 µg/mL; MIC (Pseudomonas aeruginosa [24]): 0.25 µg/mL; MIC (Pseudomonas aeruginosa [25]): 1 µg/mL; MIC (Pseudomonas aeruginosa [28]): 1 µg/mL; MIC (Pseudomonas aeruginosa [32]): 1.5 µg/mL (≈ 5.01 µM); MIC (Pseudomonas aeruginosa [33]): 1 µg/mL
O=C(O)c1cn(C2CC2)c2cc(N3CCNCC3)c(F)cc2c1=O [CIPROFLOXACIN] |  | 3 µg/mL | 3 µg/mL | 3 µg/mL | 3 µg/mL | 0.094 µg/mL (≈ 0.284 µM) |  | 1 µg/mL | 3 µg/mL | 3 µg/mL | 4 µg/mL | 4 µg/mL | 1 µg/mL (≈ 3.02 µM) | 1.5 µg/mL | 3 µg/mL | 3 µg/mL | 1 µg/mL (≈ 3.02 µM) | 0.75 µg/mL | 1 µg/mL | 3 µg/mL | 
CC(C)(O/N=C(\C(=O)N[C@@H]1C(=O)N2C(C(=O)[O-])=C(C[n+]3ccccc3)CS[C@H]12)c1csc(N)n1)C(=O)O [CEFTAZIDIME] | 2 µg/mL | 1.5 µg/mL | 0.5 µg/mL | 1.5 µg/mL | 1.5 µg/mL | 1.5 µg/mL (≈ 2.74 µM) | 1.5 µg/mL | 1.5 µg/mL | 1 µg/mL | 2 µg/mL | 1 µg/mL | 1 µg/mL | 1.5 µg/mL (≈ 2.74 µM) | 1.5 µg/mL | 2 µg/mL | 1.5 µg/mL | 1.5 µg/mL (≈ 2.74 µM) | 1.5 µg/mL | 1.5 µg/mL | 1 µg/mL | MIC (Pseudomonas aeruginosa [9]): 1.5 µg/mL; MIC (Pseudomonas aeruginosa [14]): 2 µg/mL; MIC (Pseudomonas aeruginosa [15]): 1.5 µg/mL (≈ 2.74 µM); MIC (Pseudomonas aeruginosa [16]): 1.5 µg/mL (≈ 2.74 µM); MIC (Pseudomonas aeruginosa [17]): 1.5 µg/mL; MIC (Pseudomonas aeruginosa [20]): 1.5 µg/mL (≈ 2.74 µM); MIC (Pseudomonas aeruginosa [21]): 1.5 µg/mL (≈ 2.74 µM); MIC (Pseudomonas aeruginosa [22]): 1 µg/mL; MIC (Pseudomonas aeruginosa [24]): 2 µg/mL; MIC (Pseudomonas aeruginosa [25]): 2 µg/mL; MIC (Pseudomonas aeruginosa [28]): 2 µg/mL; MIC (Pseudomonas aeruginosa [32]): 1.5 µg/mL (≈ 2.74 µM); MIC (Pseudomonas aeruginosa [33]): 2 µg/mL
